This is an account of results in PMC10050154, “Coenzyme A binding sites induce proximal acylation across protein families” (Scientific Reports, 2023).

Experiment [1] has as its target T1, enoyl-CoA hydratase short chain 1 (ECHS1) (Homo sapiens, UniProt P30084).
T1 construct: recombinant, purified from E. coli, purchased from Novus Biologicals; homohexamer
T1 sequence (P30084 28-290): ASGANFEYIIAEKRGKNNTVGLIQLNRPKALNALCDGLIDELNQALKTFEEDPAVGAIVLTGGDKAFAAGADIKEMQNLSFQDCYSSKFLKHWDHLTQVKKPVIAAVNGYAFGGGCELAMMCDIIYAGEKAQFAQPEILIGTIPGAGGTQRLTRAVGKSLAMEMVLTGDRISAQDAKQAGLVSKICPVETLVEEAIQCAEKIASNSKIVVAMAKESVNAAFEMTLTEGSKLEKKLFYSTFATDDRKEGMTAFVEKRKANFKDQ
Kind of experiment: LC-MS/MS of lysine acetylation. To be noted: covalent (lysine acetylation at K282, K284, K204 near the CoA pocket). Format: binding.

The target in experiment [2] is T1, enoyl-CoA hydratase short chain 1 (ECHS1). Kind of experiment: LC-MS/MS (DIA) of site-specific lysine succinylation, dose-response. The format is biochemical.

Take `CC(=O)SCCNC(=O)CCNC(=O)[C@H](O)C(C)(C)COP(=O)(O)OP(=O)(O)OC[C@H]1O[C@@H](n2cnc3c(N)ncnc32)[C@H](O)[C@@H]1OP(=O)(O)O` [acetyl-CoA]: the “LC-MS/MS of lysine acetylation” value in experiment [1] is listed as “in ECHS1 induced by acetyl-CoA incubation was inhibited by a 25-molar excess of CoA”.
The molecule `CC(C)(COP(=O)(O)OP(=O)(O)OC[C@H]1O[C@@H](n2cnc3c(N)ncnc32)[C@H](O)[C@@H]1OP(=O)(O)O)[C@@H](O)C(=O)NCCC(=O)NCCS` [CoA] gave a half-inhibitory concentration (IC50) in experiment [2] of 331 to 1920 µM.

One may read the IC50 as the concentration that gives 50% inhibition. Low readings indicate greater potency, high ones weaker potency.
